Here are results for nine compounds from patent publication US8003783B2, “17B-hydroxysteroid dehydrogenase inhibitors” (Sterix Limited, priority 2004, dated 2011).

Assay [1] deals with T1, 17β-HSD1 (Homo sapiens, UniProt P14061).
T1 construct: was measured in intact cell monolayers of T47D and MDA-MB-231 breast cancer cells respectively; endogenous in cells; host or cells: T-47D human breast cancer cells
T1 sequence (P14061 1-328): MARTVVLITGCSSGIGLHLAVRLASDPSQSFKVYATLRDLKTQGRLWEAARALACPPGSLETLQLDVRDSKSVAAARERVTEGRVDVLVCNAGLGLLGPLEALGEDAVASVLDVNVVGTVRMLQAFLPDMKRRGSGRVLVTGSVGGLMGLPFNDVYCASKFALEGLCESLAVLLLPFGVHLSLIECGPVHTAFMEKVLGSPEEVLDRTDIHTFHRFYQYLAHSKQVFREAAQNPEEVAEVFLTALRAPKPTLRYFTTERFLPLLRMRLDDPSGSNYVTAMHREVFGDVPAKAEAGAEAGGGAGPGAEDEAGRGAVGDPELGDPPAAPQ
Put plainly: 17β-HSD Type I activity in T-47D cells (E1→E2). The conditions noted are these: for inhibition at 10 µM: T47D. The class given is cell-based.

Assay [2] addresses T2, 17β-HSD2 (Homo sapiens, UniProt P37059).
T2 construct: was measured in intact cell monolayers of T47D and MDA-MB-231 breast cancer cells respectively; endogenous in cells; host or cells: MDA-MB-231 human breast cancer cells
T2 sequence (P37059 1-387): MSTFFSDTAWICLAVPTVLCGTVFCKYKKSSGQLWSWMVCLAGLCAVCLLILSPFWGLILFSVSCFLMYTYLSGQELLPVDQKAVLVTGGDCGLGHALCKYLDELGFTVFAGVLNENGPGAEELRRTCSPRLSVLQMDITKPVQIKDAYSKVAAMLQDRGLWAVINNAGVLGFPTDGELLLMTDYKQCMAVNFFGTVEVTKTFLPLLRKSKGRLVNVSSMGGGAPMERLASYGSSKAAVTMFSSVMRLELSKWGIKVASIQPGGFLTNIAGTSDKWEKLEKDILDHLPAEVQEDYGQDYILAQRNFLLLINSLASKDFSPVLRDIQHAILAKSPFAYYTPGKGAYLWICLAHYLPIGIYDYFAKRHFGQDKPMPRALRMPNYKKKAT
Put plainly: 17β-HSD Type II activity in MDA-MB-231 cells (E2→E1). The class given is cell-based.

The target of assay [3] is T3, E1-STS (Homo sapiens, UniProt P08842).
T3 construct: endogenous in cells; host or cells: MCF-7 human breast cancer cells
T3 sequence (P08842 22-583): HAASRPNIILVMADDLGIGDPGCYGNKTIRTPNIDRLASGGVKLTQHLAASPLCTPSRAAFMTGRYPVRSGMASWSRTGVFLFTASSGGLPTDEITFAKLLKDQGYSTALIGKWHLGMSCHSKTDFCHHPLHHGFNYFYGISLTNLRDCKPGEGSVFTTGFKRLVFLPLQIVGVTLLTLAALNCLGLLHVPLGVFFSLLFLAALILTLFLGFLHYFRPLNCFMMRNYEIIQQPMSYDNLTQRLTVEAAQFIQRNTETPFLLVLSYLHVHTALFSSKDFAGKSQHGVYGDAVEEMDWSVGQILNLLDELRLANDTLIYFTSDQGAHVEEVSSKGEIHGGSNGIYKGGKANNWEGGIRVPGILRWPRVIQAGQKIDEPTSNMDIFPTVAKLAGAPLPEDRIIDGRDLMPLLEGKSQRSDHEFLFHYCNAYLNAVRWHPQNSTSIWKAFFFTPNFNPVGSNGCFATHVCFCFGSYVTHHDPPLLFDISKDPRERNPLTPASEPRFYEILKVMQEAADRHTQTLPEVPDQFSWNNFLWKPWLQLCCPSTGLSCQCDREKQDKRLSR
The arrangement: dose or concentration left out as unconfirmed. The settings on record: intact MCF-7 cells; cited from earlier work.

Assay [4] deals with T4, rat liver DHA-STS (Rattus norvegicus, UniProt P15589).
T4 construct: from tissue; host or cells: rat liver
T4 sequence (P15589 20-577): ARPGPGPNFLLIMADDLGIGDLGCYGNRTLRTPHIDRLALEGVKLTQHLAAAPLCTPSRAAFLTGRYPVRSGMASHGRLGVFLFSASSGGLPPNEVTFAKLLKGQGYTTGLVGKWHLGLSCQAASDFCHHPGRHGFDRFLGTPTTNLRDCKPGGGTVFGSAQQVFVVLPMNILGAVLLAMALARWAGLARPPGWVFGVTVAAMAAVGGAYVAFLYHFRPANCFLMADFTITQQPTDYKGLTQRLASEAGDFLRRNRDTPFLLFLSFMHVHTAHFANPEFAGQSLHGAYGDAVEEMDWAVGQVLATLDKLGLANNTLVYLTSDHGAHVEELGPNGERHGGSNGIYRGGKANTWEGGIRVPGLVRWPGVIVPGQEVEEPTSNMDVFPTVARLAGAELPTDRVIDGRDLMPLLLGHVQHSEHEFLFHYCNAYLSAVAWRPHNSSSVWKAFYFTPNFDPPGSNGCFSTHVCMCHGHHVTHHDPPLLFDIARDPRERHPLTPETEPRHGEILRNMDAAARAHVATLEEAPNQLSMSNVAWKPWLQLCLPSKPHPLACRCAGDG
The settings on record: administered orally or subcutaneously; cited from earlier work.

Assay [5] has as its system rats. The conditions noted are these: cited from earlier work.
Assay [6] deals with T5, rat liver E1-STS (Rattus norvegicus, UniProt P15589).
T5 construct: samples of liver tissue were obtained and oestrone sulphatase activity assayed; from tissue; host or cells: rat liver
T5 sequence (P15589 20-577): T4 sequence (P15589 20-577)
The conditions noted are these: administered orally or subcutaneously; cited from earlier work.

Setting [7] is: 10 μM, MDA-MB-231 cells, E2→E1, read-out: % inhibition of 17β-HSD2 @ 10 μM.
The mark [8] stands for this setting: 10 μM, T-47D cells, E1→E2, read-out: % inhibition of 17β-HSD1 @ 10 μM.
Where [9] appears, read: read-out: % inhibition of 17β-HSD1 @ 10 μM, 10 μM, T-47D cells, E1→E2.
Setting [10] is: MDA-MB-231, read-out: % inhibition of 17β-HSD2 @ 10 μM.

Read-outs that look alike come from different tables or passages of the source.

As for `CCc1cc2c(cc1O)CCC1C2CC[C@]2(C)C(=O)C(CC(=O)NCc3cccnc3)CC12` (stereo partly drawn) [compound 1040], the half-inhibitory concentration (IC50) (commonly the point on the concentration scale where inhibition reaches its midpoint) in assay [1] turned out to be 27 nM. The inhibition (in general, the drop in the measured response relative to a control, in per cent) at 10 µM in assay [2] (setting [7]) was -5%.
Turning to `CCN(C)C(=O)c1[nH]nc2c1CC1C3CCc4cc(O)ccc4C3CC[C@]21C` (stereo partly drawn) [compound 894], the inhibition at 10 µM in assay [1] (setting [8]) turned out to be 88%; in assay [2] (setting [7]) it was 6%.
`C[C@]12CC[C@@H]3c4ccc(OS(N)(=O)=O)cc4CC[C@H]3[C@@H]1CCC2=O` [EMATE, oestrone-3-sulphamate]: the “inhibition of E1-STS activity” value in assay [3] was “more than 99%”. The “inhibition of rat liver DHA-STS activity” value in assay [4] was 99%. Moreover, the “oral uterotrophic activity relative to oestradiol” value in assay [5] is reported as 100 times. In assay [6], the “inhibition of rat liver E1-STS activity” value is 99%.
Take `C[C@]12CCC3c4ccc(O)cc4CCC3C1CC(CC(=O)NCc1ccco1)C2=O` (stereo partly drawn) [compound 672]: the inhibition at 10 µM in assay [1] (setting [9]) was found to be 85%; in assay [2] (setting [10]), 3%.
For the compound `C[C@]12CCC3c4ccc(O)cc4CCC3C1C/C(=C\c1ccco1)C2=O` (stereo partly drawn) [compound 474], the values for the inhibition at 10 µM in assay [1] (setting [8]) and in assay [2] (setting [7]) were 26% and 17%, respectively.
Turning to `C[C@]12CCC3c4ccc(O)cc4CCC3C1C/C(=C\c1ccc(C#N)cc1)C2=O` (stereo partly drawn) [compound 478], the figures for the inhibition at 10 µM in assay [1] (setting [8]) and in assay [2] (setting [7]) were 39% and 18%, respectively.
Consider `COC(=O)C1(CN2C(=O)c3ccccc3C2=O)CC2C3CCc4cc(O)ccc4C3CC[C@]2(C)C1=O` (stereo partly drawn) [compound 780], for which the inhibition at 10 µM in assay [1] (setting [8]) was 71%; in assay [2] (setting [7]), 17%.
On to `COC(=O)C1CC2C3CCc4cc(O)ccc4C3CC[C@]2(C)C1=O` (stereo partly drawn) [compound 568], for which the inhibition at 10 µM in assay [1] (setting [8]) was determined as 69%; in assay [2] (setting [7]) it was 9%.
Turning to `Cn1cccc1CNC(=O)c1[nH]nc2c1CC1C3CCc4cc(O)ccc4C3CC[C@]21C` (stereo partly drawn) [compound 895], the inhibition at 10 µM is 89% in assay [1] (setting [9]) and -4% in assay [2] (setting [10]). Also, the IC50 in assay [1] (T-47D cells, E1→E2, read-out: IC50 (17β-HSD1)) came out at 2300 nM.
